Results published in PubChem BioAssay AID1259408 (Genetic Toxicology Data Bank (GENE-TOX), 2018).
Calls of active or inactive are those of the source. No rule for the calls is given here.

Tested on: GENE-TOX genotoxicity assays, various organisms and cells
Test: GENE-TOX mutagenicity studies
Details: for call: Assay Type: In vivo carcinogenicity studies
[1] = Species/Cell Type: Escherichia coli polA (W3119 vs P3478), Assay Type: Rec-assay, DNA effects (bacterial DNA repair), Assay Code: RE1T, Evaluation Type: Evaluation A (Pre-1980)
[2] = Species/Cell Type: Nonhuman, Assay Code: CCG+, Evaluation Type: Evaluation A (Pre-1980)
[3] = Species/Cell Type: Tradescantia species, Assay Type: Gene mutation, Assay Code: TRM+D, Dose Response: With dose response, Evaluation Type: Evaluation A (Pre-1980)
[4] = Species/Cell Type: Salmonella typhimurium (one or more of the five standard strains: TA98, TA100, TA1535, TA1537, and TA1538), Assay Type: Histidine reverse gene mutation, Ames assay, Assay Code: SALT, Evaluation Type: Evaluation A (Pre-1980)
[5] = Species/Cell Type: Rodents, Sex: Male, Assay Type: Dominant lethal test, Assay Code: DLT-, Evaluation Type: Evaluation A (Pre-1980)

How did the mutagenic call (Species/Cell Type: Drosophila melanogaster, Assay Type: Sex-linked recessive lethal gene mutation, Assay Code: SRL+, Evaluation Type: Evaluation A (Pre-1980)) turn out when COP(=O)(OC)OC was run?
The mutagenic call was “active; positive”.

What about the mutagenic call [1] of the same compound?
Its mutagenic call is “no conclusion”.

What about the mutagenic call (Species/Cell Type: Human lymphocytes or leukocytes, Assay Type: Chromosome aberrations in vitro, Assay Code: CY7+D, Dose Response: With dose response, Evaluation Type: Evaluation A (Pre-1980)) of the same compound?
The mutagenic call was “active; positive”.

What about the mutagenic call (Species/Cell Type: Mammalian polychromatic erythrocytes, Assay Type: Micronucleus test, chromosome aberrations, Assay Code: MNT+, Evaluation Type: Evaluation A (Pre-1980)) of the same compound?
Its mutagenic call is “active; positive”.

And the mutagenic call (Species/Cell Type: Mouse, Sex: Male, Assay Type: Sperm morphology, Assay Code: SPI+, Evaluation Type: Evaluation A (Pre-1980))?
The mutagenic call was “active; positive”.

And the call [2]?
Its call is “active; positive”.

What about the mutagenic call (Species/Cell Type: Rodents, Sex: Male, Assay Type: Dominant lethal test, Assay Code: DLT+D, Dose Response: With dose response, Evaluation Type: Evaluation A (Pre-1980)) of the same compound?
The mutagenic call was “active; positive”.

What about the mutagenic call [3] of the same compound?
The mutagenic call was “active; positive”.

Which mutagenic call (Species/Cell Type: Saccharomyces cerevisiae, Assay Type: Reverse gene mutation, Assay Code: YERT, Evaluation Type: Evaluation A (Pre-1980)) does the source give for CCOC(=O)COc1ccc(Br)cc1CSC(=N)N here?
The mutagenic call was “no conclusion”.

Which results are given for NC(=O)N1c2ccccc2C=Cc2ccccc21?
mutagenic call (Species/Cell Type: Human lymphocytes, Assay Type: Sister-chromatid exchange (SCE) in vitro, Assay Code: SCLT, Evaluation Type: Evaluation B (Post-1980)): no conclusion; mutagenic call (Species/Cell Type: Human, Assay Type: Sister-chromatid exchange (SCE) in vitro, Assay Code: SC1T, Evaluation Type: Evaluation B (Post-1980)): no conclusion; mutagenic call [4]: no conclusion

For N=c1ccn(O)c2ccccc12, which mutagenic call (Species/Cell Type: Escherichia coli polA (W3119 vs P3478), Assay Type: Rec-assay, DNA effects (bacterial DNA repair), Assay Code: RE1-, Evaluation Type: Evaluation A (Pre-1980)) is on record?
Its mutagenic call is “inactive; negative”.

What about the mutagenic call (Species/Cell Type: Nonhuman, Assay Type: Chromosome aberrations in vitro, Assay Code: CY&+D, Dose Response: With dose response, Evaluation Type: Evaluation A (Pre-1980)) of the same compound?
Its mutagenic call is “active; positive”.

And the call (Species/Cell Type: Nonhuman, Assay Code: CCGT, Evaluation Type: Evaluation A (Pre-1980))?
Its call is “no conclusion”.

And the mutagenic call (Species/Cell Type: Nonhuman, Assay Type: Sister-chromatid exchange (SCE) in vitro, Assay Code: SC2+D, Dose Response: With dose response, Evaluation Type: Evaluation A (Pre-1980))?
The mutagenic call was “active; positive”.

With O=[N+]([O-])c1cnc2ccccc2c1 as the compound, how does the mutagenic call (Species/Cell Type: Neurospora crassa, Assay Type: Aneuploidy, chromosome aberrations, Assay Code: NEN-, Evaluation Type: Evaluation A (Pre-1980)) read?
Its mutagenic call is “inactive; negative”.

For O=[N+]([O-])c1ccc(-c2nc(NCCO)c3ccccc3n2)s1, which mutagenic call (Species/Cell Type: Salmonella typhimurium (one or more of the five standard strains: TA98, TA100, TA1535, TA1537, and TA1538), Assay Type: Histidine reverse gene mutation, Ames assay, Assay Code: SAL+, Evaluation Type: Evaluation A (Pre-1980)) is on record?
The mutagenic call was “active; positive”.

How did the mutagenic call (Species/Cell Type: Mammalian polychromatic erythrocytes, Assay Type: Micronucleus test, chromosome aberrations, Assay Code: MNT-, Evaluation Type: Evaluation B (Post-1980)) turn out when C=C(Cl)Cl was run?
The mutagenic call was “inactive; negative”.

What about the call (Species/Cell Type: Nonhuman, Assay Code: CCG+L, Evaluation Type: Evaluation A (Pre-1980)) of the same compound?
The call was “active; positive”.

What about the mutagenic call [5] of the same compound?
Its mutagenic call is “inactive; negative”.

And the mutagenic call (Species/Cell Type: Salmonella typhimurium (one or more of the five standard strains: TA98, TA100, TA1535, TA1537, and TA1538), Assay Type: Histidine reverse gene mutation, Ames assay, Assay Code: SAL+*, Activation: With metabolic activation, Evaluation Type: Evaluation A (Pre-1980))?
The mutagenic call was “active; positive”.

And the mutagenic call [3]?
Its mutagenic call is “active; positive”.

Which results are given for ClC1(Cl)C2(Cl)C3(Cl)C4(Cl)C(Cl)(Cl)C5(Cl)C3(Cl)C1(Cl)C5(Cl)C24Cl (centres undefined)?
call [2]: active; positive; mutagenic call [5]: inactive; negative

What does the source list for CCOP(=S)(OCC)SCCSCC?
mutagenic call (Species/Cell Type: Bacillus subtilis (H17 vs M45), Assay Type: Rec-assay, spot test, DNA effects (bacterial DNA repair), Assay Code: REWT, Evaluation Type: Evaluation A (Pre-1980)): no conclusion; mutagenic call (Species/Cell Type: Drosophila melanogaster, Assay Type: Sex-linked recessive lethal gene mutation, Assay Code: SRL-, Evaluation Type: Evaluation A (Pre-1980)): inactive; negative; mutagenic call [1]: no conclusion; mutagenic call (Species/Cell Type: Hordeum vulgare (barley), Assay Type: Chromosome aberrations, Assay Code: HOC+D, Dose Response: With dose response, Evaluation Type: Evaluation A (Pre-1980)): active; positive; mutagenic call (Species/Cell Type: Human diploid fibroblasts, Assay Type: Unscheduled DNA synthesis (UDS) in vitro, DNA effects, Assay Code: UDH+/-*, Activation: With metabolic activation, Evaluation Type: Evaluation A (Pre-1980)): inactive; positive without activation, negative with activation; mutagenic call (Species/Cell Type: Nonhuman, Assay Type: Sister-chromatid exchange (SCE) in vitro, Assay Code: SC2T, Evaluation Type: Evaluation B (Post-1980)): no conclusion; mutagenic call (Species/Cell Type: Saccharomyces cerevisiae, Assay Type: Mitotic recombination or gene conversion, Assay Code: YEH-, Evaluation Type: Evaluation A (Pre-1980)): inactive; negative; mutagenic call (Species/Cell Type: Salmonella typhimurium (one or more of the five standard strains: TA98, TA100, TA1535, TA1537, and TA1538), Assay Type: Histidine reverse gene mutation, Ames assay, Assay Code: SAL-, Evaluation Type: Evaluation A (Pre-1980)): inactive; negative

How did the mutagenic call [4] turn out when Cc1cc2c(c3ccc4ccccc4c13)CCCC2C (centres undefined) was run?
The mutagenic call was “no conclusion”.
